Source: ChEMBL document CHEMBL4359906, “Design and synthesis of new N-terminal fatty acid modified-antimicrobial peptide analogues with potent in vitro biological activity” (Eur J Med Chem, 2019)
≈ marks a conversion by molar mass, not a printed value. Calls of active or inactive are those of the source. The rule behind the calls is not given here.

How the values were obtained:
[1] = Selectivity index, ratio of MHC10 for human RBC to geometric mean of peptide MIC for gram negative bacteria; format: toxicity; details: human red blood cells, read-out: Selectivity Index
Escherichia coli [2] = experiment: Antimicrobial activity against Escherichia coli ATCC 25922 at 1 mM preincubated for 6 hrs in presence of 2 ug/ml chymotrypsin and measured after 18 hrs by microplate reader analysis; format: functional, organism-based
Escherichia coli [3] = experiment: Antibacterial activity against Escherichia coli ATCC 43837 after 18 hrs by CLSI based broth microdilution method; format: functional; details: ATCC 43837, 18 h
Escherichia coli [4] = experiment: Induction of membrane disruption in Escherichia coli ATCC 25922 assessed as degeneration in membrane at 4 times of MIC after 2 hrs by SEM analysis; format: functional, organism-based
Pseudomonas aeruginosa [5] = experiment: Potentiation of polymyxin B-induced antibacterial activity against Pseudomonas aeruginosa ATCC 27853 assessed as FICI after 18 hrs by checker board assay; format: functional
Staphylococcus aureus [6] = experiment: Ratio of antibacterial activity against Staphylococcus aureus ATCC 25923 in presence of NaCl to antibacterial activity against Staphylococcus aureus ATCC 25923; format: functional
Escherichia coli [7] = experiment: Induction of membrane disruption in Escherichia coli ATCC 25922 assessed as corrugated membrane surface at 4 times of MIC after 2 hrs by SEM analysis; format: functional, organism-based
Escherichia coli [8] = experiment: Potentiation of rifampicin-induced antibacterial activity against Escherichia coli ATCC 25922 assessed as FICI after 18 hrs by checker board assay; format: functional
Erythrocyte = experiment: Hemolytic activity in human RBC measured after 1 hr by microplate reader analysis; format: ADME, cell-based
Escherichia coli [9] = experiment: Antibiofilm activity against Escherichia coli ATCC 25922 at 2 times MIC after 24 hrs by crystal violet staining based assay; format: functional, organism-based
Escherichia coli [10] = experiment: Disruption of membrane integrity in Escherichia coli ATCC 25922 assessed as membrane damage by measuring PI fluorescence incubated for 1 hr by PI dye based flow cytometric analysis; format: functional, organism-based
Staphylococcus aureus [11] = experiment: Ratio of antibacterial activity against Staphylococcus aureus ATCC 25923 in presence of KCl to antibacterial activity against Staphylococcus aureus ATCC 25923; format: functional
Escherichia coli [12] = experiment: Ratio of antibacterial activity against Escherichia coli ATCC 25922 in presence of MgCl2 to antibacterial activity against Escherichia coli ATCC 25922; format: functional
Escherichia coli [13] = experiment: Antibacterial activity against Escherichia coli ATCC 25922 after 18 hrs by CLSI based broth microdilution method; format: functional; details: ATCC 25922, 18 h
Staphylococcus aureus [14] = experiment: Antibacterial activity against methicillin-resistant Staphylococcus aureus 936 after 18 hrs by CLSI based broth microdilution method; format: functional; details: Staphylococcus aureus, 936, 18 h
Escherichia coli [15] = experiment: Potentiation of polymyxin B-induced antibacterial activity against Escherichia coli ATCC 25922 assessed as FICI after 18 hrs by checker board assay; format: functional
Escherichia coli [16] = experiment: Disruption of membrane integrity in Escherichia coli ATCC 25922 assessed as membrane damage by measuring PI fluorescence at 4 times of MIC incubated for 1 hr by PI dye based flow cytometric analysis (reference value: 1.35%); format: functional
Pseudomonas aeruginosa [17] = experiment: Potentiation of rifampicin-induced antibacterial activity against Pseudomonas aeruginosa ATCC 27853 assessed as FICI after 18 hrs by checker board assay; format: functional
Pseudomonas aeruginosa [18] = experiment: Antibacterial activity against Pseudomonas aeruginosa ATCC 27853 after 18 hrs by CLSI based broth microdilution method; format: functional; details: ATCC 27853, 18 h
Klebsiella pneumoniae [19] = experiment: Potentiation of rifampicin-induced antibacterial activity against Klebsiella pneumoniae ATCC 700603 assessed as FICI after 18 hrs by checker board assay; format: functional
Escherichia coli [20] = experiment: Ratio of antibacterial activity against Escherichia coli ATCC 25922 in presence of KCl to antibacterial activity against Escherichia coli ATCC 25922; format: functional
Escherichia coli [21] = experiment: Antibacterial activity against Escherichia coli ATCC 25922 at 0.5 times MIC incubated for 18 hrs measured for 15 passages by CLSI based broth microdilution method; format: functional, organism-based
Escherichia coli [22] = experiment: Ratio of MIC for Escherichia coli ATCC 25922 preincubated for 6 hrs in presence of 10% mouse serum and measured after 18 hrs to MIC for antibacterial activity against Escherichia coli ATCC 25922 after 18 hrs; format: functional
Escherichia coli [23] = experiment: Induction of ROS generation in Escherichia coli ATCC 25922; format: functional, organism-based
[24] = Selectivity index, ratio of MHC10 for human RBC to geometric mean of peptide MIC for gram positive bacteria; format: toxicity; details: human red blood cells, read-out: Selectivity Index
Escherichia coli [25] = experiment: Ratio of antibacterial activity against Escherichia coli ATCC 25922 in presence of NaCl to antibacterial activity against Escherichia coli ATCC 25922; format: functional
Klebsiella pneumoniae [26] = experiment: Potentiation of polymyxin B-induced antibacterial activity against Klebsiella pneumoniae ATCC 700603 assessed as FICI after 18 hrs by checker board assay; format: functional
Staphylococcus aureus [27] = experiment: Antibacterial activity against Staphylococcus aureus ATCC 25923 after 18 hrs by CLSI based broth microdilution method; format: functional; details: ATCC 25923, 18 h
Pseudomonas aeruginosa [28] = experiment: Antibiofilm activity against Pseudomonas aeruginosa ATCC 27853 after 24 hrs by crystal violet staining based assay; format: functional, organism-based
Escherichia coli [29] = experiment: Antibiofilm activity against Escherichia coli ATCC 25922 after 24 hrs by crystal violet staining based assay; format: functional, organism-based
Staphylococcus aureus [30] = experiment: Ratio of antibacterial activity against Staphylococcus aureus ATCC 25923 in presence of FeCl3 to antibacterial activity against Staphylococcus aureus ATCC 25923; format: functional
Bacillus subtilis = experiment: Antibacterial activity against Bacillus subtilis ATCC 23857 after 18 hrs by CLSI based broth microdilution method; format: functional; details: ATCC 23857, 18 h
Escherichia coli [31] = experiment: Ratio of antibacterial activity against Escherichia coli ATCC 25922 in presence of FeCl3 to antibacterial activity against Escherichia coli ATCC 25922; format: functional
Escherichia coli [32] = experiment: Antimicrobial activity against Escherichia coli ATCC 25922 at 1 mM preincubated for 6 hrs in presence of 2000 ug/ml trypsin and measured after 18 hrs by microplate reader analysis; format: functional, organism-based
Staphylococcus aureus [33] = experiment: Antibiofilm activity against Staphylococcus aureus ATCC 25923 after 24 hrs by crystal violet staining based assay; format: functional, organism-based
Escherichia coli [34] = experiment: Induction of membrane disruption in Escherichia coli ATCC 25922 assessed as rough membrane surface at 4 times of MIC after 2 hrs by SEM analysis; format: functional, organism-based
Escherichia coli [35] = experiment: Induction of membrane disruption in Escherichia coli ATCC 25922 assessed as fracture in membrane at 4 times of MIC after 2 hrs by SEM analysis; format: functional, organism-based
Staphylococcus aureus [36] = experiment: Ratio of antibacterial activity against Staphylococcus aureus ATCC 25923 in presence of MgCl2 to antibacterial activity against Staphylococcus aureus ATCC 25923; format: functional
Escherichia coli [37] = experiment: Disruption of membrane integrity in Escherichia coli ATCC 25922 assessed as membrane damage by measuring PI fluorescence at 2 times of MIC incubated for 1 hr by PI dye based flow cytometric analysis (reference value: 1.35%); format: functional
Pseudomonas aeruginosa [38] = experiment: Antibiofilm activity against Pseudomonas aeruginosa ATCC 27853 at 0.25 to 2 times of MIC after 24 hrs by crystal violet staining based assay; format: functional, organism-based

Structure (SMILES)	selectivity ratio [1]	Activity (Escherichia coli [2])	MIC (Escherichia coli [3]) [µM]	Activity (Escherichia coli [4])	fractional inhibitory concentration index (FICI) (Pseudomonas aeruginosa [5])	Ratio (Staphylococcus aureus [6])	Activity (Escherichia coli [7])	fractional inhibitory concentration index (FICI) (Escherichia coli [8])	MHC10 (Erythrocyte) [µM]	inhibition (Escherichia coli [9])	Activity (Escherichia coli [10])	Ratio (Staphylococcus aureus [11])	Ratio (Escherichia coli [12])	MIC (Escherichia coli [13]) [µM]	MIC (Staphylococcus aureus [14]) [µM]	fractional inhibitory concentration index (FICI) (Escherichia coli [15])	Activity (Escherichia coli [16]) [%]	fractional inhibitory concentration index (FICI) (Pseudomonas aeruginosa [17])	MIC (Pseudomonas aeruginosa [18]) [µM]	fractional inhibitory concentration index (FICI) (Klebsiella pneumoniae [19])	other results
CCCCCCCCCC(=O)NCC(=O)N[C@@H](CC(C)C)C(=O)N[C@@H](CC(C)C)C(=O)N[C@H](CCCCN)C(=O)N[C@@H](CCCNC(=N)N)C(=O)N[C@H](C(=O)N[C@H](CCCCN)C(=O)N[C@H](C(=O)N[C@@H](CC(C)C)C(=O)N[C@@H](CC(C)C)C(N)=O)[C@@H](C)O)[C@@H](C)CC	5.33	Active	8 (≈ 10.5 µg/mL)	Active	0.125	2 - 4	Active	0.1875	64	inactive	Dose-dependent effect	2 - 4	2 - 4	16 (≈ 20.9 µg/mL)	8 (≈ 10.5 µg/mL)	0.3125	75.9	0.3125	8 (≈ 10.5 µg/mL)	0.3125	Ratio (Escherichia coli [20]): 2 - 4; Activity (Escherichia coli [21]): Active; Ratio (Escherichia coli [22]): 1; Activity (Escherichia coli [23]): inactive; selectivity ratio [24]: 8; Ratio (Escherichia coli [25]): 2 - 4; fractional inhibitory concentration index (FICI) (Klebsiella pneumoniae [26]): 0.3125; MIC (Staphylococcus aureus [27]): 8 µM (≈ 10.5 µg/mL); inhibition (Pseudomonas aeruginosa [28]): Dose-dependent effect; inhibition (Escherichia coli [29]): Dose-dependent effect; Ratio (Staphylococcus aureus [30]): 2 - 4; MIC (Bacillus subtilis): 8 µM (≈ 10.5 µg/mL); Ratio (Escherichia coli [31]): 2 - 4; Activity (Escherichia coli [32]): Active; inhibition (Staphylococcus aureus [33]): Dose-dependent effect; Activity (Escherichia coli [34]): Active; Activity (Escherichia coli [35]): Active; Ratio (Staphylococcus aureus [36]): 2 - 4; Activity (Escherichia coli [37]): 49.6%
CCCCCCCC(=O)NCC(=O)N[C@@H](CC(C)C)C(=O)N[C@@H](CC(C)C)C(=O)N[C@H](CCCCN)C(=O)N[C@@H](CCCNC(=N)N)C(=O)N[C@H](C(=O)N[C@H](CCCCN)C(=O)N[C@H](C(=O)N[C@@H](CC(C)C)C(=O)N[C@@H](CC(C)C)C(N)=O)[C@@H](C)O)[C@@H](C)CC	12.2	Active	32 (≈ 41 µg/mL)	Active	0.1875	2 - 4	Active	0.0625	> 256	Active	Dose-dependent effect	2 - 4	2 - 4	64 (≈ 81.9 µg/mL)	64 (≈ 81.9 µg/mL)	0.1875	70.8	0.75	8 (≈ 10.2 µg/mL)	0.0625	inhibition (Pseudomonas aeruginosa [38]): Active; Ratio (Escherichia coli [20]): 2 - 4; Activity (Escherichia coli [21]): Active; Ratio (Escherichia coli [22]): 1; Activity (Escherichia coli [23]): inactive; selectivity ratio [24]: 15.4; Ratio (Escherichia coli [25]): 2 - 4; fractional inhibitory concentration index (FICI) (Klebsiella pneumoniae [26]): 0.0625; MIC (Staphylococcus aureus [27]): 32 µM (≈ 41 µg/mL); inhibition (Pseudomonas aeruginosa [28]): Dose-dependent effect; inhibition (Escherichia coli [29]): Dose-dependent effect; Ratio (Staphylococcus aureus [30]): 2 - 4; MIC (Bacillus subtilis): 4 µM (≈ 5.12 µg/mL); Ratio (Escherichia coli [31]): 2 - 4; Activity (Escherichia coli [32]): Active; inhibition (Staphylococcus aureus [33]): Dose-dependent effect; Activity (Escherichia coli [34]): Active; Activity (Escherichia coli [35]): Active; Ratio (Staphylococcus aureus [36]): 2 - 4; Activity (Escherichia coli [37]): 64.6%
